This series is described as follows: Stability of crystalline forms of 5-CNAC (room temperature, humidity, storage).

With `O=C([O-])CCCCCCCNC(=O)c1cc(Cl)ccc1[O-].[Na+].[Na+]` [Form III, di-sodium salt of N-(5-chlorosalicyloyl)-8-aminocaprylic acid], under “relative humidity below about 50%”, the “stability as a function of relative humidity” value is reported as “unstable at a relative humidity below about 50%”. As for `O=C([O-])CCCCCCCNC(=O)c1cc(Cl)ccc1[O-].[Na+].[Na+]` [Form IV, di-sodium salt of N-(5-chlorosalicyloyl)-8-aminocaprylic acid], the “form conversion on storage” value (storage of the mixture of Forms I and IV (Example 5) over time) was “convert to Form I over time on storage”.
